Source: patent US10072011B2, “Substituted bridged urea analogs as sirtuin modulators” (GlaxoSmithKline Intellectual Property (No.2) Limited, priority 2014, dated 2018)
Where two headings read alike, the source gives them in different places.

Target: T1, SIRT1 (Homo sapiens, UniProt Q96EB6)
T1 sequence (Q96EB6 1-747): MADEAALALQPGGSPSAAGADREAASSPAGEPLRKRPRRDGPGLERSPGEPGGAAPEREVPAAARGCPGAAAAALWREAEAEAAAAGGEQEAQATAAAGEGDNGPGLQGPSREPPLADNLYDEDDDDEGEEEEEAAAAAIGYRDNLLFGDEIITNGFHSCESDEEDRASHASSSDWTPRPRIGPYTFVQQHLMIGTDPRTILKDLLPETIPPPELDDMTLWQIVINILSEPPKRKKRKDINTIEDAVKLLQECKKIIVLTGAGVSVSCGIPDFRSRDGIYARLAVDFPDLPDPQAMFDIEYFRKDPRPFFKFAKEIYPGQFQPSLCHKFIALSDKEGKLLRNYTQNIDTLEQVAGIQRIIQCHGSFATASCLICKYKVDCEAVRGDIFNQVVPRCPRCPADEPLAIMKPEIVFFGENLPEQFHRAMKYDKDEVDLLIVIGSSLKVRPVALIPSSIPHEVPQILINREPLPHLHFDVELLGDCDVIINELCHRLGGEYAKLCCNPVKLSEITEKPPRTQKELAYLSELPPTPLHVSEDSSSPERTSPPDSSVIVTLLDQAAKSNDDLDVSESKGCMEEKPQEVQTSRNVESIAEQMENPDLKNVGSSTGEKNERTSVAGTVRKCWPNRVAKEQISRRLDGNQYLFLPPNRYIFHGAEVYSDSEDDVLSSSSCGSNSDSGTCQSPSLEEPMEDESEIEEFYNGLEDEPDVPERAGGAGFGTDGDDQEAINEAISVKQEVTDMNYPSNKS
Test: Trp mass spectrometry assay of SIRT1 activation (Ac-R-H-K-K(Ac)-W-NH2 peptide)
Assay type: biochemical
Details: for Emax: 25 min, read-out: TRP MAX RESP (percent maximum fold activation)
How it was run: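 Mass spectrometry read-out (OAADPR formed, or deacetylated Trp peptide) after a 25 min NAD-dependent deacetylation by E. coli-expressed His-SIRT1, stopped with formic acid.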

[1] = Trp peptide 0.5 μM, 120 μM βNAD+, 10 nM SIRT1, 25 min at 25° C., relative to control (100%)
[2] = Trp peptide 0.5 μM, 120 μM βNAD+, 10 nM SIRT1, 25 min at 25° C.

| Emax [1] [%] | TRP Activity (EC1.5, concentration of test compound that results in 150% activation of SIRT1) [2] | TRP MAX RESP (percent maximum fold activation) [1] | Compound | Emax [%] |
| --- | --- | --- | --- | --- |
| > 150 | B (EC1.5 1-25 μM) |  | Cc1ncc(-c2ccnc(NC(=O)N3c4nc(C(=O)N[C@H](C)C(F)(F)F)c(Cl)cc4N4CC[C@H]3C4)c2)o1 [Example 281, (4S)-8-chloro-N5-(4-(2-methyloxazol-5-yl)pyridin-2-yl)-N7-((R)-1,1,1-trifluoropropan-2-yl)-3,4-dihydro-1,4-methanopyrido[2,3-b][1,4]diazepine-5,7(2H)-dicarboxamide] |  |
| > 150 | A (EC1.5<1 μM) |  | O=C(NCC1CC1)c1ccc2c(n1)N(C(=O)Nc1cc3c(cn1)OCCC3)[C@H]1CCN2C1 [Example 145, (4S)—N7-(cyclopropylmethyl)-N5-(3,4-dihydro-2H-pyrano[2,3-c]pyridin-6-yl)-3,4-dihydro-1,4-methanopyrido[2,3-b][1,4]diazepine-5,7(2H)-dicarboxamide] |  |
| > 150 | A (EC1.5<1 μM) |  | O=C(NC1CC1)c1ccc2c(n1)N(C(=O)Nc1cc(-c3cnco3)ccn1)[C@H]1CCN2C1 [Example 78, (4S)—N7-cyclopropyl-N5-(4-(oxazol-5-yl)pyridin-2-yl)-3,4-dihydro-1,4-methanopyrido[2,3-b][1,4]diazepine-5,7(2H)-dicarboxamide] |  |
|  | B (EC1.5 1-25 μM) | A (Fold activation≥150%) | Cc1ccc2c(NC(=O)N3c4nc(C(=O)NC5CC5(F)F)ccc4N4CC[C@H]3C4)n[nH]c2n1 (single isomer, unassigned) [Example 221] |  |
| < 150 | A (EC1.5<1 μM) |  | C[C@@H](NC(=O)c1ccc2c(n1)N(C(=O)Nc1cc(-c3cnc(C4CC4)s3)ccn1)[C@H]1CCN2C1)C(F)(F)F [Example 325, (4S)—N5-(4-(2-cyclopropylthiazol-5-yl)pyridin-2-yl)-N7-((R)-1,1,1-trifluoropropan-2-yl)-3,4-dihydro-1,4-methanopyrido[2,3-b][1,4]diazepine-5,7(2H)-dicarboxamide] |  |
| > 150 | A (EC1.5<1 μM) |  | Cn1cccc(NC(=O)N2c3nc(C(=O)NCC(F)(F)F)ccc3N3CC[C@H]2C3)c1=O [Example 23, (4S)—N5-(1-methyl-2-oxo-1,2-dihydropyridin-3-yl)-N7-(2,2,2-trifluoroethyl)-3,4-dihydro-1,4-methanopyrido[2,3-b][1,4]diazepine-5,7(2H)-dicarboxamide] |  |
| > 150 | A (EC1.5<1 μM) |  | Cc1ccnc(NC(=O)N2c3nc(C(=O)NCC4CC4)ccc3N3CC[C@H]2C3)c1 [Example 110, (4S)—N7-(cyclopropylmethyl)-N5-(4-methylpyridin-2-yl)-3,4-dihydro-1,4-methanopyrido[2,3-b][1,4]diazepine-5,7(2H)-dicarboxamide] |  |
| > 150 | B (EC1.5 1-25 μM) |  | Cn1cnc(NC(=O)N2c3nc(C(=O)NCC(F)(F)F)ccc3N3CC[C@H]2C3)cc1=O [Example 120, (4S)—N5-(1-methyl-6-oxo-1,6-dihydropyrimidin-4-yl)-N7-(2,2,2-trifluoroethyl)-3,4-dihydro-1,4-methanopyrido[2,3-b][1,4]diazepine-5,7(2H)-dicarboxamide] |  |
|  | B (EC1.5 1-25 μM) | A (Fold activation≥150%) | O=C(NC(CCO)C(F)(F)F)c1ccc2c(n1)N(C(=O)Nc1ccccn1)[C@H]1CCN2C1 (single isomer, unassigned) [Example 248] |  |
| > 150 | B (EC1.5 1-25 μM) |  | O=C(NCC(F)(F)F)c1ccc2c(n1)N(C(=O)Nc1ccc3[nH]cnc3c1)[C@H]1CCN2C1 [Example 231, (4S)—N5-(1H-benzo[d]imidazol-5-yl)-N7-(2,2,2-trifluoroethyl)-3,4-dihydro-1,4-methanopyrido[2,3-b][1,4]diazepine-5,7(2H)-dicarboxamide] |  |
| > 150 | B (EC1.5 1-25 μM) |  | CC(C)(CO)CNC(=O)c1ccc2c(n1)N(C(=O)Nc1ccccn1)[C@H]1CCN2C1 [Example 41, (4S)—N7-(3-hydroxy-2,2-dimethylpropyl)-N5-(pyridin-2-yl)-3,4-dihydro-1,4-methanopyrido[2,3-b][1,4]diazepine-5,7(2H)-dicarboxamide] |  |
| > 150 | B (EC1.5 1-25 μM) |  | O=C(NCc1nccs1)c1ccc2c(n1)N(C(=O)Nc1cc(OC[C@H](O)CO)ccn1)[C@H]1CCN2C1 [Example 195, (4S)—N5-(4-((R)-2,3-dihydroxypropoxy)pyridin-2-yl)-N7-(thiazol-2-ylmethyl)-3,4-dihydro-1,4-methanopyrido[2,3-b][1,4]diazepine-5,7(2H)-dicarboxamide] |  |
| > 150 | B (EC1.5 1-25 μM) |  | O=C(NC1CC1)c1ccc2c(n1)N(C(=O)Nc1ncccn1)[C@H]1CCN2C1 [Example 204, (4S)—N7-cyclopropyl-N5-(pyrimidin-2-yl)-3,4-dihydro-1,4-methanopyrido[2,3-b][1,4]diazepine-5,7(2H)-dicarboxamide] |  |
| > 150 | A (EC1.5<1 μM) |  | O=C(NCC(F)(F)F)c1ccc2c(n1)N(C(=O)Nc1ccc(F)cn1)[C@H]1CCN2C1 [Example 70, (4S)—N5-(5-fluoropyridin-2-yl)-N7-(2,2,2-trifluoroethyl)-3,4-dihydro-1,4-methanopyrido[2,3-b][1,4]diazepine-5,7(2H)-dicarboxamide] |  |
| > 150 | A (EC1.5<1 μM) |  | Cc1c[nH]c2nc(NC(=O)N3c4nc(C(=O)N[C@H](C)C(F)(F)F)ccc4N4CC[C@H]3C4)ncc12 [Example 175, (4S)—N5-(5-methyl-7H-pyrrolo[2,3-d]pyrimidin-2-yl)-N7-((R)-1,1,1-trifluoropropan-2-yl)-3,4-dihydro-1,4-methanopyrido[2,3-b][1,4]diazepine-5,7(2H)-dicarboxamide] |  |
| > 150 | A (EC1.5<1 μM) |  | O=C(NCc1ccccc1)c1ccc2c(n1)N(C(=O)Nc1ccccn1)[C@H]1CCN2C1 [Example 106, (4S)—N7-benzyl-N5-(pyridin-2-yl)-3,4-dihydro-1,4-methanopyrido[2,3-b][1,4]diazepine-5,7(2H)-dicarboxamide] |  |
| > 150 | B (EC1.5 1-25 μM) |  | NC(CNC(=O)c1ccc2c(n1)N(C(=O)Nc1ncccn1)[C@H]1CCN2C1)C(F)(F)F (single isomer, unassigned) [Example 198] |  |
| > 150 | A (EC1.5<1 μM) |  | C[C@@H](NC(=O)c1ccc2c(n1)N(C(=O)Nc1cccn(C)c1=O)[C@H]1CCN2C1)C(F)(F)F [Example 98, (4S)—N5-(1-methyl-2-oxo-1,2-dihydropyridin-3-yl)-N7-((R)-1,1,1-trifluoropropan-2-yl)-3,4-dihydro-1,4-methanopyrido[2,3-b][1,4]diazepine-5,7(2H)-dicarboxamide] |  |
| > 150 | A (EC1.5<1 μM) |  | CC[C@H](NC(=O)c1ccc2c(n1)N(C(=O)Nc1ccccn1)[C@H]1CCN2C1)C(F)(F)F [Example 31, (4S)—N5-(pyridin-2-yl)-N7-((S)-1,1,1-trifluorobutan-2-yl)-3,4-dihydro-1,4-methanopyrido[2,3-b][1,4]diazepine-5,7(2H)-dicarboxamide] |  |

| Compound | Emax [1] [%] | TRP Activity (EC1.5, concentration of test compound that results in 150% activation of SIRT1) [2] | TRP MAX RESP (percent maximum fold activation) [1] | Emax [%] |
| --- | --- | --- | --- | --- |
| C[Si](C)(C)CNC(=O)c1ccc2c(n1)N(C(=O)Nc1ccccn1)[C@H]1CCN2C1 [Example 108, (4S)—N5-(pyridin-2-yl)-N7-((trimethylsilyl)methyl)-3,4-dihydro-1,4-methanopyrido[2,3-b][1,4]diazepine-5,7(2H)-dicarboxamide] | > 150 | A (EC1.5<1 μM) |  |  |
| Cc1c[nH]c2nc(NC(=O)N3c4nc(C(=O)NCC(F)(F)F)ccc4N4CC[C@H]3C4)ncc12 [Example 176, (4S)—N5-(5-methyl-7H-pyrrolo[2,3-d]pyrimidin-2-yl)-N7-(2,2,2-trifluoroethyl)-3,4-dihydro-1,4-methanopyrido[2,3-b][1,4]diazepine-5,7(2H)-dicarboxamide] |  | A (EC1.5<1 μM) |  | > 150 |
